Results taken from patent publication US11702426B2, “Macrocyclic deaza-purinones for the treatment of viral infections” (JANSSEN SCIENCES IRELAND UNLIMITED COMPANY, priority 2013, dated 2023).
Where two headings read alike, the source gives them in different places.

Legend:
[1] = rcm bond, Grubbs 2nd generation, CH2Cl2, 25.0 °C
[2] = system: interferon production in human PBMC; experiment: Interferon production in human PBMC, read out on HEK-ISRE-luc reporter cells; format: cell-based; conditions: lowest effective concentration, PBMC incubated overnight with compound, supernatant transferred to HEK-ISRE-luc cells; for minimal effective concentration: Homo sapiens, PBMC, 24 h, read-out: PBMC HEK-ISRE-luc (LEC; μM); for PBMC HEK-ISRE-luc (LEC; μM): 24 hours
Procedure: Activation of human TLR7 results in robust production of interferon by plasmacytoid dendritic cells present in human blood. The potential of compounds to induce interferon was evaluated by determination of interferon in the conditioned media from peripheral blood mononuclear cells (PBMC). The presence of interferon in the samples was determined, using an interferon reporter cell line stably expressing an interferon-stimulated responsive elements (ISRE)-luc reporter construct. The ISRE element with sequence TAGTTTCACTTTCCC (SEQ ID NO: 1) is highly responsive to the STAT1-STAT2-IRF9 transcription factor, which becomes activated upon binding of IFN-I to the IFN receptor. Briefly, PBMCs were prepared from buffy coats of at least two donors using a standard Ficoll centrifugation protocol. Isolated PBMCs were resuspended in RPMI medium supplemented with 10% human AB serum and 2×10^5 cells/well were dispensed into 384-well plates containing compounds (70 μL total volume). After overnight incubation of the PBMCs with the compounds, 10 μL of supernatant was transferred to 384-well plates containing 5×10^3 HEK-ISRE-luc cells/well in 30 μL (plated the day before). Following 24 hours of incubation, activation of the ISRE elements was measured by assaying luciferase activity using 40 μL/well Steady Lite Plus substrate (Perkin Elmer) and measured with ViewLux ultraHTS microplate imager (Perkin Elmer). The stimulating activity of each compound on the HEK-ISRE-luc cells was reported as LEC. The LEC in turn indicates the degree of ISRE activation on transfer of a defined amount of PBMC culture medium. Recombinant interferon alfa-2a (Roferon-A) was used as a standard control compound.

[3] = biological target: T1, human TLR7 (Homo sapiens, UniProt Q9NYK1); experiment: HEK293 TLR7-NFκB-luc cellular reporter assay; format: cell-based; conditions: lowest effective concentration; HEK293 transiently transfected with TLR7 and NFκB-luc; 6 hours incubation
T1 construct: expressed in transfected cells; host or cells: HEK293
T1 sequence (Q9NYK1 27-1049): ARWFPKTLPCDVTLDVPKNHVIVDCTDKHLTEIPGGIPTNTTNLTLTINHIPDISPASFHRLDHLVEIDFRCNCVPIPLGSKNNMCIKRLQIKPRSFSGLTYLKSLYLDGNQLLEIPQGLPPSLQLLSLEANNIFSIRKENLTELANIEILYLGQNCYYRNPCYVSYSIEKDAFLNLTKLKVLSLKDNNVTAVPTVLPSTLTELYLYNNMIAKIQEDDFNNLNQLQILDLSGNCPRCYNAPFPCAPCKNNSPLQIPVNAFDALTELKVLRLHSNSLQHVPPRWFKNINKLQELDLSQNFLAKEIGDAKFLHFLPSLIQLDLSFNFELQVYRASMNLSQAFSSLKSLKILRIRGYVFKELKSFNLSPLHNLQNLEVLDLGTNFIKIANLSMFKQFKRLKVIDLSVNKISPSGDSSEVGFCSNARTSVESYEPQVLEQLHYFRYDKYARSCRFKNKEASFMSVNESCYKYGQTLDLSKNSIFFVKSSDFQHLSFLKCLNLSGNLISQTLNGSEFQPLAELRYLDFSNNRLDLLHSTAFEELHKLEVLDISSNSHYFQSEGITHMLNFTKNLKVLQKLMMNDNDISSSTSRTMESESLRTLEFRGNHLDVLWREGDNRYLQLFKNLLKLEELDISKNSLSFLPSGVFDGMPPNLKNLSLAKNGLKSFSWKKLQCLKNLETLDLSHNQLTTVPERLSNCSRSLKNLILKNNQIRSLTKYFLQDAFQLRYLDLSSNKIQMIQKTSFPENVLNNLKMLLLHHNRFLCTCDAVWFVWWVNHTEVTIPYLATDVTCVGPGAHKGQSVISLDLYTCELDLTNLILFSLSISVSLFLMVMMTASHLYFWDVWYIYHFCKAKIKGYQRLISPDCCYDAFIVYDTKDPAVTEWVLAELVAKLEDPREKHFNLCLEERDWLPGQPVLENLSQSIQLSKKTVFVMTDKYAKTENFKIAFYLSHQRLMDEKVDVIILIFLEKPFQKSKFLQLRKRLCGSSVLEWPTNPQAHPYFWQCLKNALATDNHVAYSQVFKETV
Procedure: The ability of compounds to activate human TLR7 and TLR8 was assessed in a cellular reporter assay using HEK293 cells transiently transfected with a TLR7 or TLR8 expression vector and NFκB-luc reporter construct. Briefly, HEK293 cells were grown in culture medium (DMEM supplemented with 10% FCS and 2 mM Glutamine). For transfection of cells in 15 cm dishes, cells were detached with Trypsin-EDTA, transfected with a mix of CMV-TLR7 or TLR8 plasmid (1,700 ng), NFκB-luc plasmid (850 ng) and a transfection reagent and incubated 48 hours at 37° C. in a humidified 5% CO2 atmosphere. Transfected cells were then washed in PBS, detached with Trypsin-EDTA, and resuspended in medium to a density of 1.25×10^5 cells/mL. Forty microliters of cells were then dispensed into each well in 384-well plates, where 200 nL of compound in 100% DMSO was already present. Following 6 hours incubation at 37° C., 5% CO2, the luciferase activity was determined by adding 15 μl of Steady Lite Plus substrate (Perkin Elmer) to each well and readout performed on a ViewLux ultraHTS microplate imager (Perkin Elmer). Dose response curves were generated from measurements performed in quadruplicates. Lowest effective concentrations (LEC) values, defined as the concentration that induces an effect which is at least two fold above the standard deviation of the assay, were determined for each compound.

Compound | HEK293 TLR7-NFκB-luc (LEC; μM) [3] | ring closure, yield of all isomers ([1]; from C=CCCOc1cc(N(Cc2cc(OC)cc(OCC=C)c2)C(=O)OCC)c([N+](=O)[O-])c(N)n1, 5.3 mM, 16.0 h) | ring closure, yield of all isomers ([1]; from C=CCCOc1cc(N(Cc2cccc(CC=C)c2)C(=O)OCC)c([N+](=O)[O-])c(N)n1, 3.38 mM, 72.0 h) | minimal effective concentration [2] | PBMC HEK-ISRE-luc (LEC; μM) [2]
CCOC(=O)N1Cc2cc(OC)cc(c2)OCC=CCCOc2cc1c([N+](=O)[O-])c(N)n2 |  | 41% |  |  | 
CCOC(=O)N1Cc2cccc(c2)CC=CCCOc2cc1c([N+](=O)[O-])c(N)n2 |  |  | 33% |  | 
Nc1nc2cc3c1nc(O)n3Cc1cccc(c1)OC/C=C/CO2 [Compound 1] | 2.88 µM |  |  | 0.3 µM | 
Nc1nc2cc3c1nc(O)n3Cc1ncccc1OC/C=C/CCO2 [Compound 5] | 2.14 µM |  |  | 0.082 µM | 
COc1ccc2cc1OC/C=C/COc1cc3c(nc(O)n3C2)c(N)n1 [Compound 7] | 3.88 µM |  |  | 0.29 µM | 
Nc1nc2cc3c1nc(O)n3Cc1cccc(c1)OC/C=C/CCO2 [Compound 10] | 0.78 µM |  |  | 0.25 µM | 
COc1cc2cc(c1)OC/C=C/COc1cc3c(nc(O)n3C2)c(N)n1 [Compound 12] | 1.08 µM |  |  | 0.3 µM | 
COc1cc2cc(c1)OCCCCOc1cc3c(nc(O)n3C2)c(N)n1 [Compound 13] | 1.71 µM |  |  | 0.15 µM | 
COc1cc2cc(c1)OC/C=C/CCOc1cc3c(nc(O)n3C2)c(N)n1 [Compound 15] | 0.18 µM |  |  | 0.04 µM | 
Nc1nc2cc3c1nc(O)n3Cc1ccc(F)c(c1)OC/C=C/CO2 [Compound 16] | 2.02 µM |  |  | 0.47 µM | 
Cl.Nc1nc2cc3c1nc(O)n3Cc1ccc(F)c(c1)OC/C=C/CO2 [Compound 17] | 1.88 µM |  |  |  | 0.39 µM
Nc1nc2cc3c1nc(O)n3Cc1ccc(F)c(c1)OC/C=C/CCO2 [Compound 21] | 0.9 µM |  |  | 0.25 µM | 
Cl.Nc1nc2cc3c1nc(O)n3Cc1ccc(F)c(c1)OC/C=C/CCO2 [Compound 22] | 1.83 µM |  |  |  | 0.39 µM
Nc1nc2cc3c1nc(O)n3Cc1ccc(F)c(c1)OCCCCO2 [Compound 24] |  |  |  | 2.14 µM | 
Nc1nc2cc3c1nc(O)n3Cc1cccc(c1)OCC/C=C/CO2 [Compound 25] | 1.92 µM |  |  | 0.53 µM | 
Nc1nc2cc3c1nc(O)n3Cc1cc(F)cc(c1)OC/C=C/CCO2 [Compound 27] | 1.35 µM |  |  | 0.14 µM | 
Cl.Nc1nc2cc3c1nc(O)n3Cc1cc(F)cc(c1)OC/C=C/CCO2 [Compound 28] | 0.91 µM |  |  |  | 0.15 µM
Nc1nc2cc3c1nc(O)n3Cc1cc(F)cc(c1)OC/C=C/CO2 [Compound 30] | 0.64 µM |  |  | 0.15 µM | 
Cl.Nc1nc2cc3c1nc(O)n3Cc1cc(F)cc(c1)OC/C=C/CO2 [Compound 31] | 1.19 µM |  |  |  | 0.15 µM
Nc1nc2cc3c1nc(O)n3Cc1cc(F)cc(c1)OCCCCO2 [Compound 33] | 2.77 µM |  |  | 0.45 µM | 
Nc1nc2cc3c1nc(O)n3CCc1cccc(c1)OC/C=C/CO2 [Compound 35] | 17.43 µM |  |  | 1.98 µM | 
COc1ccc2cc1OC/C=C/COc1cc3c(nc(O)n3CC2)c(N)n1 [Compound 36] | 13.75 µM |  |  | 1.63 µM | 

Now from value to molecule, other results behind:

HEK293 TLR7-NFκB-luc (LEC; μM) [3] | Compound | ring closure, yield of all isomers ([1]; from C=CCCOc1cc(N(Cc2cc(OC)cc(OCC=C)c2)C(=O)OCC)c([N+](=O)[O-])c(N)n1, 5.3 mM, 16.0 h) | ring closure, yield of all isomers ([1]; from C=CCCOc1cc(N(Cc2cccc(CC=C)c2)C(=O)OCC)c([N+](=O)[O-])c(N)n1, 3.38 mM, 72.0 h) | minimal effective concentration [2] | PBMC HEK-ISRE-luc (LEC; μM) [2]
4.47 µM | Nc1nc2cc3c1nc(O)n3Cc1cccc(c1)OCCCCO2 [Compound 2] |  |  | 0.93 µM | 
0.27 µM | Nc1nc2cc3c1nc(O)n3Cc1cccc(c1)C/C=C/CCO2 [Compound 3] |  |  | 0.033 µM | 
1 µM | Nc1nc2cc3c1nc(O)n3Cc1ncccc1OCCCCCO2 [Compound 6] |  |  | 0.16 µM | 
7.1 µM | COc1ccc2cc1OCCCCOc1cc3c(nc(O)n3C2)c(N)n1 [Compound 8] |  |  | 0.58 µM | 
11.09 µM | Nc1nc2cc3c1nc(O)n3Cc1cccc(c1)CCCCCN2 [Compound 9] |  |  | 10.9 µM | 
1.25 µM | Nc1nc2cc3c1nc(O)n3Cc1cccc(c1)OC/C=C/CCCO2 [Compound 11] |  |  | 0.45 µM | 
7.01 µM | Nc1nc2cc3c1nc(O)n3Cc1cccc(c1)OCCCCCO2 [Compound 14] |  |  | 2.4 µM | 
8.02 µM | Nc1nc2cc3c1nc(O)n3Cc1cccc(c1)NC/C=C/CO2 [Compound 18] |  |  | 1.11 µM | 
14.96 µM | Nc1nc2cc3c1nc(O)n3Cc1ccc(F)c(c1)OCCCCCO2 [Compound 19] |  |  | 2.22 µM | 
4.99 µM | Cl.Nc1nc2cc3c1nc(O)n3Cc1ccc(F)c(c1)OCCCCCO2 [Compound 20] |  |  |  | 1.61 µM
16.74 µM | Nc1nc2cc3c1nc(O)n3Cc1cccc(c1)NCCCCO2 [Compound 23] |  |  | 8.98 µM | 
1.88 µM | Nc1nc2cc3c1nc(O)n3Cc1cccc(c1)NC/C=C/CCO2 [Compound 26] |  |  | 0.37 µM | 
1.14 µM | Nc1nc2cc3c1nc(O)n3Cc1cccc(c1)NC/C=C\CCO2 [Compound 29] |  |  | 0.48 µM | 
2.92 µM | Nc1nc2cc3c1nc(O)n3Cc1cc(F)cc(c1)OCCCCCO2 [Compound 32] |  |  | 0.49 µM | 
8.1 µM | Nc1nc2cc3c1nc(O)n3Cc1cccc(c1)NCCCCCO2 [Compound 34] |  |  | 2.11 µM | 
